Where a chain is given by its changes, count along the chain named. Read-outs that look alike come from different tables or passages of the source.
Tests used:
[1] = target: T1, native aldolase from rabbit muscle (RM) (Oryctolagus cuniculus, UniProt P00883); assay: Aldolase activity by coupled enzyme test (TIM/GDH), inactivation and reactivation kinetics; type: biochemical; details: for Specific activity: RM 0.2 mg/mL
T1 construct: made in house
T1 sequence (P00883 1-364): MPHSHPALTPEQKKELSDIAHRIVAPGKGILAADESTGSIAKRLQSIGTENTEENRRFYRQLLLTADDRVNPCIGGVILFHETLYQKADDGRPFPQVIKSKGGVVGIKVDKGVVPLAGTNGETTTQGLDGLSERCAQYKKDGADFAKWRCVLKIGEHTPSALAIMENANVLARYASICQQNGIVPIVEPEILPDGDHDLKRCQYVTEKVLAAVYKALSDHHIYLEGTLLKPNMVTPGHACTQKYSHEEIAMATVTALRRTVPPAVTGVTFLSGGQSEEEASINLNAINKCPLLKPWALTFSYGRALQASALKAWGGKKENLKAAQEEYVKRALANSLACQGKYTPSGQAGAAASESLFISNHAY
Experimental: Aldolase activity was measured using a coupled enzyme test system: the triose-phosphate isomerase and glycerol-3-phosphate deshydrogenase (TIM/GDH) system, following oxidation of the NADH (Boehringer-Mannheim, France) at 340 nm, by means of a SAFAS spectrophotometer preheated to 25° C. Testing began with the addition of the substrate (Fru(1.6)P2; […] in final concentration), to complete an aldolase solution created in a triethanolamine buffer (TEA buffer) (100 Mm TEA/HCl; 50 mM NaCl; 1 mM EDTA, pH 7.6; ionic strength 0.15), 0.42 mM of NADH, and containing both enzyme systems (10 μg/mL of GDH and 1 μg/mL of TIM) for a final volume of 1 mL. The construction, overexpression and purification of recombinant aldolase were carried out in accordance with Morris A. J. et al., 1993 (J. Biol. Chem., 265:1095-1100) and Berthiaume L. et al., 1993 (J. Biol. Chem., 268:10826-10835).
The substrate cleavage rate was determined by measuring the decrease in absorbance/minute at 340 nm. The aldolase was dialyzed overnight at 4° C. against a TEA buffer prior to use. The protein concentration was determined by spectrophotometry, using ε280=0.91 mL.mg^−1.cm^−1 as an extinction coefficient. Subunit concentration was determined on the basis of a molecular weight of 159,000 for an aldolase tetramer. • Kinetic Method:
In the extreme situation where k−2 approaches zero, a reversible slow-binding inhibitor may resemble an irreversible one directed toward the active site. In this situation, the equation eqn.(3) is used for this type of inhibition (Meloche H. P., 1967, Biochemistry, 6:2273-2280). The semi-inactivation time of the enzyme (t1/2) is defined as a function of the mutual inhibitor concentration and is graphically represented by a straight line crossing the Y-axis at […] and crossing the X-axis at −1/Ki. • Experimental Protocol:
Native aldolase (5 μM of subunits) is incubated in the presence of FHN-P (0.05-1 mM) in TEA buffer. Enzyme activity is analyzed as a function of time using 10 μl aliquot portions.
Inactivation kinetics follow pseudo-first-order kinetics, and kinetic parameters Ki and k2 are determined by using the equation eqn.(3). To determine the reactivation rate, aldolase (25 μM of subunits in the TEA buffer) is incubated with 500 μM of FHN-P until reaching 90% inactivation. Excess inhibitor is removed by ultrafiltration with a PM-30 Millipore membrane. The enzyme-inhibitor complex is incubated in the TEA buffer (15 μM of subunits at final concentration) containing hexitol-P2 (10 mM). Aliquot portions (10 μl) are removed at different times to measure aldolase activity.
Controls involve repeating the protocol without FHN-P. The reactivation process is analyzed as if it were a first-order reaction. • Monitored by UV-Visible Differential Spectroscopy.

K229M mutant RM aldolase = target: T2, K229M mutant RM aldolase (Oryctolagus cuniculus, UniProt P00883, K230M); assay: UV-visible differential spectroscopy (method A) with mutated aldolase K229M; type: binding, rabbit; details: FHN-P 300 μM; for kapp: 431 nm
T2 construct: made in house
T2 sequence (P00883 1-364 K230M): T1 sequence (P00883 1-364) with K230M
Experimental: For method A, absorption spectra are recorded as a function of time, between 250 and 500 nm, or at wavelengths corresponding to maximum or minimum absorption. Measurements are begun by adding FHN-P at varying final concentrations (0.1-1 mM) in the TEA buffer containing a fixed concentration of aldolase (10 μM of subunits). Measured absorption spectra for the enzyme complex are corrected using the absorbance of the buffer, the FHN—P, and the enzyme (measured separately). The differential absorption spectra thus obtained are used to calculate the value of the constants that define the formation of the aldolase-inhibitor complex.
Every UV-visible differential test spectroscopy test using mutated aldolases (10 μM of subunits) is carried out using method A. • Monitored by Electrospray Ionization Mass Spectrometry (ESI-MS).
Residues of lysine 106, 146 and 229 residues are located at the active aldolase sites and thus are candidates for causing inactivation by forming a Schiff base with the FHN-P. In order to identify which lysine is responsible for the differential absorbances in the presence of FHN-P, sporadic mutations of these lysine residues were created and named: K107M (Research Collaboratory for Structural Bioinformatics Protein Databank), K146M (Blonski C. et al., 1997, Biochem. J. 323:71-77) and […] (Research Collaboratory for Structural Bioinformatics Protein Databank). […] UV-visible differential spectroscopy (method A) was used to examine formation of the enzyme complex for each sporadic mutation in the presence of a fixed concentration of FHN-P (300 μM).

Question: How did the Specific activity ([1]; FHN-P 250 μM with Fru(1,6)P2 (1 mM), 80 min incubation) turn out when O=Cc1c(O)ccc2cc(OP(=O)(O)O)ccc12 [FHN-P, 5-formyl-6-hydroxy-2-naphthylphosphate] was run?
Answer: The Specific activity was 5.2 ± 0.4 Unit/mg.

Question: And the Specific activity ([1]; FHN-P 250 μM with hexitol-P2, 80 min incubation)?
Answer: Its Specific activity is 9.9 ± 0.5 Unit/mg.

Question: What about the Specific activity ([1]; compound 250 μM, TEA buffer pH 7.6, 80 min incubation, RM alone 12.5 ± 0.5) of the same compound?
Answer: The Specific activity was 2.8 ± 0.3 Unit/mg.

Question: And the Ki ([1]; dissociation constant of rapidly formed EI complex, from kapp at 0.01-1.5 mM inhibitor, eqn.(3), read-out: Ki)?
Answer: Its Ki is 250 ± 100 µM.

Question: And the Ki ([1]; estimated from the values of Table 2, read-out: global dissociation constant Ki*)?
Answer: Its Ki is 0.04 ± 0.02 µM.

Question: And the k2 ([1]; inactivation constant, enzyme activity kinetics)?
Answer: Its k2 is 0.07 ± 0.01 min⁻¹.

Question: What about the Residual specific activity (K229M mutant RM aldolase) of the same compound?
Answer: Its Residual specific activity is “ud”.

Question: And the “ΔA relative to 432 nm” value (K229M mutant RM aldolase; first (rapid) phase)?
Answer: The value was 95%.

Question: What about the kapp (K229M mutant RM aldolase; first (rapid) phase) of the same compound?
Answer: Its kapp is 0.040 ± 0.0025 min⁻¹.

Question: What about the “ΔA relative to 432 nm” value (K229M mutant RM aldolase; second (slow) phase) of the same compound?
Answer: Its value is 25%.

Question: What about the kapp (K229M mutant RM aldolase; second (slow) phase) of the same compound?
Answer: The kapp was 0.0015 ± 0.0003 min⁻¹.
